From the NIST ThermoML archive (doi:10.1007/s10765-006-0095-5) come the findings set out here.

Data set [1] in a line: refractive index (Na D-line) (dimensionless). As to conditions: 101.33 kPa, Liquid.
The conditions of data set [2]: 101 kPa, Liquid.
Data set [3] in a line: xn = mol fraction of the nth substance listed. As to conditions: 101 kPa, Liquid, x1 = 1.

± gives the expanded uncertainty stated by the source.

In the case of `c1ccccc1` [benzene], the refractive index in data set [1] (298.15 K) turned out to be 1.4979 ± 0.0019; in data set [1] (303.15 K), 1.4962 ± 0.0019; in data set [1] (308.15 K), 1.4944 ± 0.0019; in data set [1] (313.15 K), 1.4929 ± 0.0019; in data set [1] (318.15 K), 1.4911 ± 0.0019. Besides, the mass density in data set [2] (298.15 K) is reported as 873.6 ± 2.5 kg/m3; in data set [2] (303.15 K), 870.8 ± 2.6 kg/m3; in data set [2] (308.15 K), 865.7 ± 2.7 kg/m3; in data set [2] (313.15 K), 861 ± 2.9 kg/m3; in data set [2] (318.15 K), 856.3 ± 3 kg/m3.

Take `c1ccccc1` [benzene] + CCCCN(CCCC)CCCC: the mass density in data set [3] (298.15 K) was 873.6 ± 2.5 kg/m3; in data set [3] (303.15 K) it was 870.8 ± 2.6 kg/m3; in data set [3] (308.15 K), 865.7 ± 2.7 kg/m3; in data set [3] (313.15 K) it was 861 ± 2.9 kg/m3; in data set [3] (318.15 K), 856.3 ± 3 kg/m3.

As to `c1ccccc1` [benzene] + CCN(CC)CC, the mass density came to 873.6 ± 2.5 kg/m3 in data set [3] (298.15 K); 870.8 ± 2.6 kg/m3 in data set [3] (303.15 K); 865.7 ± 2.7 kg/m3 in data set [3] (308.15 K); 861 ± 2.9 kg/m3 in data set [3] (313.15 K); 856.3 ± 3 kg/m3 in data set [3] (318.15 K).

For the molecule `CCCCN(CCCC)CCCC` [tributylamine], the refractive index in data set [1] (298.15 K) amounted to 1.4274 ± 0.0019; in data set [1] (303.15 K), 1.4259 ± 0.0019; in data set [1] (308.15 K) it was 1.4231 ± 0.0019; in data set [1] (313.15 K) it was 1.421 ± 0.0019; in data set [1] (318.15 K), 1.4188 ± 0.0019. Besides, the mass density in data set [2] (298.15 K) is recorded as 774.3 ± 2.1 kg/m3; in data set [2] (303.15 K), 770.8 ± 2.3 kg/m3; in data set [2] (308.15 K), 767.2 ± 2.4 kg/m3; in data set [2] (313.15 K), 763.6 ± 2.5 kg/m3; in data set [2] (318.15 K), 759.8 ± 2.6 kg/m3.

As to `CCN(CC)CC` [triethylamine], the refractive index in data set [1] (298.15 K) is on record as 1.4011 ± 0.0019; in data set [1] (303.15 K), 1.3983 ± 0.0019; in data set [1] (308.15 K) it was 1.395 ± 0.0019; in data set [1] (313.15 K), 1.3928 ± 0.0019; in data set [1] (318.15 K), 1.3898 ± 0.0019. The mass density is given as 723.4 ± 1.9 kg/m3 in data set [2] (298.15 K); 717.9 ± 2.1 kg/m3 in data set [2] (303.15 K); 712.9 ± 2.2 kg/m3 in data set [2] (308.15 K); 708.3 ± 2.3 kg/m3 in data set [2] (313.15 K); 701.6 ± 2.4 kg/m3 in data set [2] (318.15 K).

By refractive index is commonly meant the speed of light in vacuum divided by its phase velocity in the sample. What is called mass density is mass per unit of volume.
